Measured values as given in PubChem BioAssay AID179 (DTP/NCI, 2004).
Where “and” joins values, the source holds several entries; their conditions need not be identical. Equal values may be shown once. Calls of active or inactive are those of the source.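 How the source made its calls: active means compounds giving half or more protection of infected cells from virus-caused growth loss, again on retest; inactive means the rest.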 Where a SMILES comes first, the peptide text is derived from it. The star is where a group is joined. Boc = CC(C)(C)OC(=O)*; OtBu = CC(C)(C)O*

System: CEM cells HIV-1 protection, formazan growth assay
Experiment: NCI AIDS Antiviral Assay
Settings: for IC50: measured here: growth of uninfected CEM cells
Outline: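 Soluble formazan readout of cell growth; CEM cells ± HIV-1; 5 drug concs. ≥50% protection → retest; ≥50% again = moderately active; reproducible 100% = confirmed active.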

SMILES | EC50 [µM] | IC50 | outcome
CC(C)(C)OC(=O)CC(NC(=O)OC(C)(C)C)C(=O)NC(Cc1ccccc1)C(N)=O (stereo not given) (Boc-Asp(OtBu)-Phe-NH2; configuration not given here) | 162 | > 200 µM | –
Nc1c[nH][nH]c(=S)c1=S | > 200 | 3.63 µM | –
Cc1cccc(C(C)(C)C)c1NC(=O)C(=O)C(c1cnc2ccccc2n1)[N+](=O)[O-] (stereo not given) | > 324 | 120 µM | –
COc1cccc2c1c1ccc3c(c1n2C)C(=O)C=CC3=O | > 17.8 | 7.08 µM | –
O=C1[C@H]2ON(c3ccccc3)C(c3ccccc3F)[C@H]2C(=O)N1c1ccc(Cc2ccc(N3C(=O)[C@@H]4ON(c5ccccc5)C(c5ccccc5F)[C@@H]4C3=O)cc2)cc1 (stereo not given in full) | > 9.12 | > 9.12 µM | –
C=C=[CH][Sn]([c]1ccccc1)([c]1ccccc1)[c]1ccccc1 | > 35.5 | 0.676 µM | –
CC(C)(C)C(=O)/C=C/c1ccc([N+](=O)[O-])cc1 | – | 10.2 µM | inactive
O=S(=O)([O-])[O-].O=c1[nH]cnc2[nH]ncc12.O=c1[nH]cnc2[nH]ncc12.[Cu+2] | > 83.2 | 52.5 µM | –
CN1CC2=C(NC(=S)NC2c2ccccc2)/C(=C/c2ccccc2)C1 (stereo not given) | 19.1 | 85.1 µM | –
COc1cc2ccc3c4cc(OC)c(OC(C)C)cc4cnc3c2cc1OC | – | – | inactive
CCC1SC2=NCCN2C1(O)c1ccc(Cl)cc1 (stereo not given) | > 200 | 102 µM | –
CCN(CC)C1=NS(=O)(=O)c2ccccc2C(SC)=C1C | > 275 | > 275 µM | –
COc1ccc2cc3[n+](cc2c1O)CCc1cc2c(cc1-3)OCO2 | > 347 | 6.03 µM | –
CCOC(=O)c1nc2ccccc2nc1Oc1ccc(C#N)cc1 | > 200 | > 200 µM | –
C/C(=C1/N=C(c2cc([N+](=O)[O-])ccc2Cl)N(c2cccc(C)c2)C1=O)c1cc2ccccc2oc1=O | > 7.59 | > 7.59 µM | –
COc1ccc(CCN2C(=O)CCC3=C2CCCC3=O)cc1OC | > 200 | > 200 µM | –
C(=C\c1cc(-c2ccc3ccccc3n2)nc2ccc3ccccc3c12)/c1ccc2ccccc2n1 | > 200 | > 200 µM | –
C(=C1/NC(c2ccccc2)=Nc2ccccc21)/c1ccccc1 | > 6.76 | > 6.76 µM | –
CCOC(=O)[C@H]1[C@@H]2CCCC[C@@]23C(Cl)(Cl)[C@@]32C[C@]1(C(=O)OCC)CCC(=O)O2 | – | – | inactive
Cc1cccc(C)c1N1C(=O)C(=O)C(c2nc3ccccc3s2)/C(=N\N)C1=O (stereo not given) | – | – | inactive
S=P(N1CC1)(N1CC1)N1CC1 | > 1320 | 3.16 µM | –

SMILES | EC50 [µM] | IC50 | outcome
Cc1cn(COCCS(=O)c2ccccc2)c(=O)[nH]c1=O (stereo not given) | > 200 | > 200 µM | –
CCOP(=O)(CC(=O)c1cc2ccccc2[nH]1)OCC | > 851 | 437 µM | –
CC(=O)NS(=O)(=O)c1ccc(NCc2cccc3c(=O)c4ccc(Cl)cc4oc23)cc1 | > 200 | 3.16 µM | –
O=C1N=C2SC=C(NC(=S)Nc3ccccc3)N2NC12c1ccccc1-c1ccccc12 | > 200 | 74.1 µM | –
CCOC(=O)C(Cc1ccccc1)NC(=O)c1ccc(N=NN(C)C)cc1 (stereo not given) | > 51.3 | > 51.3 µM | –
CC(=O)OCC1OC(n2c(-c3ccccc3)c(N=Nc3ccc(Cl)cc3)c(C)c(C#N)c2=S)C(OC(C)=O)C(OC(C)=O)C1OC(C)=O (stereo not given) | > 200 | 24.5 µM and 95.5 µM | –
C=C1C2CC[C@H]3C45CO[C@@](O)(C(O)[C@@H]4C(C)(C)C=CC5=O)C3(C2)C1OC(C)=O (stereo not given in full) | > 339 | 23.4 µM | –
COC1=C2CC(C)CC(OC)C(O)C(C)/C=C(\C)C(OC(N)=O)C(OC)/C=C\C=C(/C)C(=O)NC(=C(/C=N/N3CCCCC3)C1=O)C2=O (stereo not given) | > 200 | 3.89 µM | –
CN(C)CCNC(=O)c1cc([N+](=O)[O-])ccn1 | > 200 | 95.5 µM | –
COc1cc(/C=C2\C(=O)N(c3ccc(Cl)cc3)C(c3ccccc3)S2(=O)=O)cc(OC)c1OC (stereo not given) | – | – | inactive
COc1ccc(-c2c(C#N)c(-c3ccc(C)cc3)n(NS(=O)(=O)c3ccc(C)cc3)c(=O)c2C#N)cc1 | > 200 | 17.4 µM | –
[N-]=[N+]=Nc1c(Cc2ccccc2)c(=O)oc2ccccc12 | > 200 | 32.4 µM | –
CCCCN(CCCC)CCCCNc1c(C)cnc2cc(Cl)ccc12 | > 26.9 | 9.33 µM | –
N#Cc1ccc(N=NN2CCCC2)cc1 | > 200 | 17.8 µM | –
CC(C)(c1cc(Cl)c(O)c(CN2CCOCC2)c1)c1cc(Cl)c(O)c(CN2CCOCC2)c1 | > 200 | 107 µM | –
CCn1cc(C(=O)O)c(=O)c2cc(F)c(-n3cccc3)cc21 | – | – | inactive
O=C1C(=O)c2ccccc2C(O)=C1C(C1=C(O)c2ccccc2C(=O)C1=O)c1ccc(Cl)cc1Cl | > 200 | 16.2 µM | –
C[C@]12CC[C@@H]3c4ccc(OS(N)(=O)=O)cc4CC[C@H]3[C@@H]1CCC2=O | – | – | inactive
CN1C/C(=C\c2cccs2)C2=NN(C)C(c3cccs3)C2C1 (stereo not given) | > 200 | > 200 µM | –
COc1ccc(/C(=N/O)c2ccccc2-c2nc3ccccc3c(=O)n2-c2ccc(S(=O)(=O)Nc3ncccn3)cc2)cc1C | > 200 | 49 µM | –
O=C1OC(c2ccc(Cl)cc2)(c2ccc(Cl)cc2)c2c1ccc1ccccc21 | – | – | inactive

SMILES | EC50 [µM] | IC50 | outcome
CCOP(=O)(OCC)/C(C#N)=C/c1ccccc1O | > 891 | > 891 µM | –
N=c1ccn2c(n1)OC1C(O)C(CCl)OC12 (stereo not given) | > 200 | 0.145 µM | –
Cc1noc2c1N=C(c1cccs1)CC(c1c(Cl)cccc1Cl)C2 (stereo not given) | > 19.1 | > 19.1 µM | –
COc1ccc([N+](=O)[O-])c2c(NCCCN(C)C)c3ccccc3nc12 | > 0.2 | 0.138 µM | –
CC(C)CNC12CN3CN(CN(C3)C1)C2 | > 1200 | > 1200 µM | –
CC(C)(C)c1cc(C(P(=O)(c2ccccc2)c2ccccc2)P(=O)(c2ccccc2)c2ccccc2)cc(C(C)(C)C)c1O | > 200 | 3.24 µM | –
NS(=O)(=O)c1ccc(Nc2c3ccccc3nc3c(C(=O)N4CCN(CCO)CC4)ccc(Cl)c23)cc1 | > 49 | > 49 µM | –
COC(=O)Nc1nc2cc(OC)c(OC)cc2c(=O)[nH]1 | > 200 | 8.71 µM | –
C[C@@H]1C[C@H]2[C@@H]3CCC4=CC(=O)CC[C@]4(C)[C@@]3(F)[C@@H](O)C[C@]2(C)[C@@]1(C)O | > 200 | 87.1 µM | –
CC1(C2COC(=O)C2)SCCCS1 (stereo not given) | > 100 | 60.3 µM | –
Cn1c(=O)c2c(n(C)c1=O)n1c(SCc3ccccc3)nnc1n2C | > 200 | 182 µM | –
O=c1c(Cl)c(Cl)cnn1CCCl | > 1100 | 1.29 µM | –
Cc1cc2c(cc1Cl)SC(C(=O)c1ccc(Cl)cc1)=NS2(=O)=O | – | – | inactive
COc1nc(NC2OC(COC(C)=O)C(OC(C)=O)C(OC(C)=O)C2OC(C)=O)c(N=CC=Nc2c(NC3OC(COC(C)=O)C(OC(C)=O)C(OC(C)=O)C3OC(C)=O)nc(OC)n(C)c2=O)c(=O)n1C (stereo not given) | – | – | inactive
O=C1C(Cl)C(c2cccc(O)c2)N1n1cnc2ccccc2c1=O (stereo not given) | > 75.9 | > 75.9 µM | –
CCC(C)[P+](c1ccccc1)(c1ccccc1)c1ccccc1 (stereo not given) | > 200 | 2.63 µM and 2.51 µM | –
CC(C)C1CC=CCC12C(=O)NC(=O)NC2=O (stereo not given) | > 1050 | 955 µM | –
O=c1oc(C(C(F)(F)F)C(F)(F)F)nc2ccccc12 | > 200 | > 200 µM | –
N[C@@H]1c2c(csc2Br)C(=O)[C@@H]1O | > 200 | 11 µM | –
Oc1ccccc1/C=N\NC(=S)Nc1ccc2cn[nH]c2c1 | > 200 | 126 µM | –
CNC(=O)c1cc(NC(=O)N(CCC#N)CCN(C(=O)N[C@@H](Cc2ccccc2)C(=O)N[C@@H](CC(C)C)C(=O)NC)c2ccccc2)ccc1OC | > 200 | 32.4 µM | –

SMILES | EC50 [µM] | IC50 | outcome
Cc1nc2c(s/c(=N\N)n2-c2ccccc2)c(=O)n1C | > 13.2 | > 13.2 µM | –
O=C(O)c1ccccc1C(=O)Cc1ccccc1 | > 200 | > 200 µM | –
O=C1C2=Cc3ccccc3OC2(O)Oc2ccccc21 (stereo not given) | > 200 | 23.4 µM | –
Cc1c(O)c2ccccc2[nH]c1=O | > 200 | > 200 µM | –
O=C([O][Bi]([c]1ccccc1)[c]1ccccc1)c1ccccc1 | > 38.9 | > 38.9 µM | –
CCN(CC)c1ccc2cc(-c3nc4ccccc4s3)c(=O)oc2c1 | > 20.4 | > 20.4 µM | –
CCCCCCCCCCCCCCCc1ccc(OCC(O)CO)cc1 (stereo not given) | > 19.1 | > 19.1 µM | –
O=C(NC12CC3CC(CC(C3)C1)C2)C(=O)c1c[nH]c2ccc(Cl)cc12 | – | – | inactive
CN(C)CC1(C)Cc2cc(Cl)sc2C1=O (stereo not given) | > 200 | > 200 µM | –
COC(=O)c1c(C(=O)OC)c2ccccn2c1-c1cc(C)cc2c1C(=O)C=CC2=O | > 200 | 0.468 µM | –
CSc1nc(NC(=O)c2ccc([N+](=O)[O-])cc2)c(C(=O)NC(C)C)s1 | > 200 | 138 µM | –
CC(=O)Oc1c(C(C)C)cc2c(c1OC(C)=O)CC1(C)OC(=O)CC(C)(C)C1=CC2 (stereo not given) | – | – | inactive
C/C([O-])=c1\c(C)nn2ccc[n+]12 | > 309 | > 309 µM | –
CCC(C)C(NC(=O)c1ccccc1SC(=O)OCCCCCl)C(N)=O (stereo not given) | 2.75 | > 200 µM | –
O=C(c1ccccc1)c1c(-c2ccccc2)sc2nc3ccccc3nc12 | > 27.5 | > 27.5 µM | –
CC1=CC(C)(C)[C@H]2O[C@@]3(O)C[C@]4(C)[C@H]5C[C@@](C(C)C)(O[C@H]4c4ccoc4)O[C@H]4[C@]5(C3)O[C@@]1(O)[C@]24O | > 100 | > 100 µM | –
CCOC(=O)CSC(=O)NCCCl | > 1100 | 537 µM | –
OC(CCN1CC2CCC(CC2)C1)(Cc1ccccc1)c1cccs1 (stereo not given) | > 200 | 47.9 µM | –
O=[N+]([O-])Cc1cnc2nncn2n1 | – | – | inactive
NC(CCC(=O)O)(C(=O)O)c1ccccc1 (stereo not given) | > 200 | > 200 µM | –
C/C=C/C(=O)[O-].N.N.N.N.N.[Co+3].[O-][Cl+3]([O-])([O-])[O-] | – | – | inactive
